{"source": "patent US20170128483A1", "about": "“HOST DEPENDENCY FACTORS AS TARGETS FOR ANTIVIRAL THERAPY” (Ruprecht-Karls-Universitat Heidelberg, priority 2014, published 2017)", "key": {"DENV-2 [1]": {"system": "DENV-2", "assay": "Virus yield inhibition assay, DENV-2 in Huh7 cells, titers by plaque assay", "details": "for Maximum effect on DENV replication (in words) / Emax: Huh7, DENV-2 MOI 0.1, 48 h; for Emax / EC50: Dengue virus; for Emax: DENV2, Huh-7, 48 h"}, "PPARγ": {"target": "T1, PPARγ (Homo sapiens, UniProt P37231)", "T1 sequence (P37231 1-505)": "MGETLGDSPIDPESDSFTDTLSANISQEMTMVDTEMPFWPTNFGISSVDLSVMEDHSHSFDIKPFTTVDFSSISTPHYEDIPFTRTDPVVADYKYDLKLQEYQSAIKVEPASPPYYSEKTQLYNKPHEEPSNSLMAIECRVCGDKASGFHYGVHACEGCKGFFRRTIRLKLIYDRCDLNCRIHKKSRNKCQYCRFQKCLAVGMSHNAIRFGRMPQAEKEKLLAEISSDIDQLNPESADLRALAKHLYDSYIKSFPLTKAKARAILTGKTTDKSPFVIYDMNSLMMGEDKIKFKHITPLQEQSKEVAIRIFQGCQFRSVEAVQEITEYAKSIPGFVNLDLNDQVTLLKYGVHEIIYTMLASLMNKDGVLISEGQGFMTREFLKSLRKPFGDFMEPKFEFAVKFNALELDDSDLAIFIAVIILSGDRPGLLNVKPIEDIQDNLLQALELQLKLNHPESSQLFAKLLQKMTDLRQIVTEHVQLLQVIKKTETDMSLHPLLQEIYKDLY", "details": "antagonist; cited from earlier work"}, "PPARα": {"target": "T2, PPARα (Homo sapiens, UniProt Q07869)", "T2 sequence (Q07869 1-468)": "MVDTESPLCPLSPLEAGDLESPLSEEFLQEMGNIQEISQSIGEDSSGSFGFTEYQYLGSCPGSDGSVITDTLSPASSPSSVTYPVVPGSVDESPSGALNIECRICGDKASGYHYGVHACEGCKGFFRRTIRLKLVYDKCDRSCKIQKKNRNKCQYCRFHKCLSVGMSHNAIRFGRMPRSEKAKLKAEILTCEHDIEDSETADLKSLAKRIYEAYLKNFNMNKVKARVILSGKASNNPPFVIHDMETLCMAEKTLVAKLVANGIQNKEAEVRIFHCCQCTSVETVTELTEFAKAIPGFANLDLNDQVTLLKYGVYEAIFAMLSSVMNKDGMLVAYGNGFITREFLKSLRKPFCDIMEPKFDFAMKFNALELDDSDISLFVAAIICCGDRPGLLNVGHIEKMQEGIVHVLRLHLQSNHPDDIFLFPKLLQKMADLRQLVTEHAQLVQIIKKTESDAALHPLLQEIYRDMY", "details": "antagonist; cited from earlier work"}, "DENVsg reporter replicon": {"system": "DENVsg reporter replicon", "assay": "microbe, parasite or virus in culture", "assay_type": "cell-based, Dengue virus"}, "[2]": {"assay": "Cell viability of Huh7 cells (ATP content / F-Luc activity)", "details": "human"}, "DENV-1": {"system": "DENV-1", "assay": "Virus yield inhibition assay, DENV-1 in Huh7 cells", "assay_type": "cell-based, Dengue virus", "details": "200 μM, Huh7, 48 h", "excerpt": "(§1) Given the only 62-67% of amino acid conservation among DENV serotypes (Kyle & Harris 2008), the different serotypes might not be equally dependent on the same host factors for their replication."}, "DENV-2 [3]": {"system": "DENV-2", "assay": "Virus yield inhibition, DENV-2 in primary human monocytes, plaque assay", "assay_type": "cell-based", "details": "Dengue virus, DENV2, Monocyte", "description": "Primary human monocytes isolated from peripheral blood from healthy donors were infected with DENV-2 at an MOI of 10 PFU/cell in the presence of the drug.\nPeripheral blood samples from three healthy donors were collected in EDTA tubes. The blood was then diluted with 2 volumes of DPBS without calcium and without magnesium (PAN Biotech) and carefully layered onto Ficoll-hypaque (PAN Biotech). The blood was then subjected to centrifugation at 700 g, without brakes. The interphase cells containing the peripheral blood mononuclear cells (PBMCs) were aspirated, transferred to a clean tube and washed three times with DPBS. CD14+ monocytes were isolated using MicroBeads conjugated to monoclonal anti-human CD14 antibodies (MACS Miltenyi Biotec) according to the manufacturer's instructions, with some modifications. Briefly, 10 μl of Microbeads were incubated with 1×10^7 cells for 15 min at 4° C. After washing with DPBS magnetic separation of CD14+ monocytes was performed using an autoMACS Separator. The purity of the isolated monocytes (89.8% for donor 1, 94.8% for donor 2 and 97.7% for donor 3) was corroborated by FACS staining using anti-CD14 antibodies.\nIdentification of host factors using RNAi may depend to a large extent on the cellular system chosen to perform the screen, what argues for the need of testing the selected hit candidates in cellular systems more representative of the infection in nature. […] The impact of the drug on virus production was assessed by plaque assay 48 h after infection."}, "DENVTCP": {"system": "DENVTCP", "assay": "Time-of-addition with single-round DENVTCP particles in Huh7 cells, Rluc", "details": "200 μM, readout 48 h"}, "DENV(GND)sg-R2A": {"system": "DENV(GND)sg-R2A", "assay_type": "cell-based, Dengue virus", "details": "200 μM, initial 10 h of transfection"}, "primary human monocytes": {"system": "primary human monocytes", "assay": "Viability of primary human monocytes (ATP content)", "assay_type": "cell-based", "details": "48 h"}, "DENV-4": {"system": "DENV-4", "assay": "Virus yield inhibition assay, DENV-4 in Huh7 cells", "assay_type": "cell-based, Dengue virus", "details": "200 μM, Huh7, 48 h", "excerpt": "as §1"}, "DENV-3": {"system": "DENV-3", "assay": "Virus yield inhibition assay, DENV-3 in Huh7 cells", "assay_type": "cell-based, Dengue virus", "details": "200 μM, Huh7, 48 h", "excerpt": "as §1"}, "[4]": {"details": "concentration per compound as in Table 1"}, "[5]": {"details": "read-out: Maximum effect on DENV replication (inhibition), inhibition of virus production, concentration per compound as in Table 1 column 'Concentration used (FIG. 3B)'"}}, "note": "Where a name gives a salt, the structure may show the parent alone. Read-outs that look alike come from different tables or passages of the source.", "data": [{"smiles": "O=c1c(-c2ccc(O)cc2)coc2cc(O[C@@H]3O[C@H](CO)[C@@H](O)[C@H](O)[C@H]3O)ccc12", "note": "[Daidzin, Daidzein-7-O-β-D-glucopyranoside]", "values": [{"measurement": "Maximum effect on DENV replication (in words)", "setting": "DENV-2 [1]; [4]", "result": "inactive"}]}, {"smiles": "CC1CCC(C(C)C)C(O)C1", "note": "(centres unmarked) [Menthol, 2-Isopropyl-5-methylcyclohexanol]", "values": [{"measurement": "Maximum effect on DENV replication (in words)", "setting": "DENV-2 [1]; [4]", "result": "inactive"}]}, {"smiles": "Cl.N=C(N)CCl", "note": "[2CA, 2-chloroethanimidamide hydrochloride]", "values": [{"measurement": "inhibition on virus production", "setting": "DENV-2 [1]; 50 μM, Huh7, 48 h", "result": 77, "unit": "%"}]}, {"smiles": "C[N+](C)(C)CC#CCN1CCCC1=O.[I-]", "note": "[Oxotremorine M, N,N,N,-trimethyl-4-(2-oxo-1-pyrrolidinyl)-2-butyn-1-ammonium iodide]", "values": [{"measurement": "Maximum effect on DENV replication (in words)", "setting": "DENV-2 [1]; [4]", "result": "inactive"}]}, {"smiles": "COc1ccccc1CNCCCCCCNCCCCCCCCNCCCCCCNCc1ccccc1OC", "note": "[Methoctramine hydrate, N,N,′-bis[6-[[(2-Methoxyphenyl)methyl]amino]hexyl]-1,8-octane diaminetetrahydrochloride hydrate]", "values": [{"measurement": "Maximum effect on DENV replication (in words)", "setting": "DENV-2 [1]; [4]", "result": "inactive"}]}, {"smiles": "CN1C2CCC1CC(OC(=O)C(CO)c1ccccc1)C2", "note": "(stereo not drawn) [Atropine, α-(Hydroxymethyl)benzeneacetic acid 8-methyl-8-azabicyclo[3.2.1]oct-3-yl ester]", "values": [{"measurement": "Maximum effect on DENV replication (in words)", "setting": "DENV-2 [1]; [4]", "result": "inactive"}]}, {"smiles": "COC(=O)c1sccc1S(=O)(=O)Nc1ccc(Nc2ccccc2)cc1OC", "note": "[GSK0660, 3-(((2-Methoxy-4-(phenylamino)phenyl)amino)sulfonyl)-2-thio-phenecarboxylic acid methyl ester]", "values": [{"measurement": "IC50", "setting": "PPARγ", "result": "> 10", "unit": "µM"}, {"measurement": "Emax", "setting": "DENV-2 [1]; [5]", "result": "~62", "unit": "%"}, {"measurement": "IC50", "setting": "PPARα", "result": "> 10", "unit": "µM"}]}, {"smiles": "Cc1cc(SCc2sc(-c3ccc(C(F)(F)F)c(F)c3)nc2C)ccc1OCC(=O)O", "note": "[GW0742]", "values": [{"measurement": "Emax", "setting": "DENV-2 [1]; read-out: Maximum effect on DENV replication (enhancement), enhancement of virus production, concentration per compound as in Table 1", "result": "~48", "unit": "%"}]}, {"smiles": "COc1ccc(NC(=O)C2C[C@H](C)CC[C@H]2C(C)C)cc1", "note": "(stereo partly drawn) [WS-12, (2S,5R)-2-Isopropyl-N-(4-methoxyphenyl)-5-methylcyclohexane carboximide]", "values": [{"measurement": "Maximum effect on DENV replication (in words)", "setting": "DENV-2 [1]; [4]", "result": "inactive"}]}, {"smiles": "Oc1cc2c(cc1O)CN(C(=S)NCCc1ccc(Cl)cc1)CCC2", "note": "[Capsazepine, N-[2-(4-Chlorophenyl)ethyl]-1,3,4,5-tetrahydro-7,8-dihydroxy-2H-2-benzazepine-2-carbothioamide]", "values": [{"measurement": "Maximum effect on DENV replication (in words)", "setting": "DENV-2 [1]; [4]", "result": "inactive"}]}, {"smiles": "O=C(NCc1ccc2c(c1)OCO2)c1c(Cl)cccc1Cl", "note": "[Alda-1, N-(1,3-Benzodioxol-5-ylmethyl)-2,6-dichlorobenzamide]", "values": [{"measurement": "Maximum effect on DENV replication (in words)", "setting": "DENV-2 [1]; [4]", "result": "inactive"}]}, {"smiles": "C=C(C)C1CNC(C(=O)O)C1CC(=O)O", "note": "(centres unmarked) [Kainic acid monohydrate, 2-Carboxy-3-carboxymethyl-4-isopropenylpyrrolidine]", "values": [{"measurement": "Maximum effect on DENV replication (in words)", "setting": "DENV-2 [1]; [4]", "result": "inactive"}]}, {"smiles": "N=C(CCl)NCCC[C@H](NC(=O)c1ccccc1)C(N)=O", "note": "[Cl-amidine, N-α-benzoyl-N5-(2-chloro-1-iminoethyl)-L-ornithine amide]", "values": [{"measurement": "luciferase activity vs DMSO-treated cells", "setting": "DENVsg reporter replicon; 200 μM, initial 10 h of transfection", "result": "no difference in luciferase activity"}, {"measurement": "EC50", "setting": "DENVsg reporter replicon; Dengue virus, Huh-7, 48 h, read-out: EC50 (R-Luc activity)", "result": "16.5 ± 2.49", "unit": "µM"}, {"measurement": "CC50 at 48 h", "setting": "[2]", "result": "> 1000", "unit": "µM"}, {"measurement": "reduction on virus production", "setting": "DENV-1", "result": 10, "unit": "fold"}, {"measurement": "EC50", "setting": "DENV-2 [3]; 48 h, monocytes of Donor 1, MOI 10, 48 h, read-out: EC50", "result": 16.9, "unit": "µM"}, {"measurement": "EC50", "setting": "DENV-2 [3]; 48 h, monocytes of Donor 2, MOI 10, 48 h, read-out: EC50", "result": 24.6, "unit": "µM"}, {"measurement": "EC50", "setting": "DENV-2 [3]; 48 h, monocytes of Donor 3, MOI 10, 48 h, read-out: EC50", "result": 22.9, "unit": "µM"}, {"measurement": "EC50", "setting": "DENV-2 [3]; three donors, read-out: EC50 values among different donors", "result": "17 to 25", "unit": "µM"}, {"measurement": "time of addition after infection up to which inhibitory effect remained significant", "setting": "DENVTCP", "result": "up to 8 h"}, {"measurement": "luciferase activity vs DMSO-treated cells", "setting": "DENV(GND)sg-R2A", "result": "no difference in luciferase activity"}, {"measurement": "cytotoxicity for primary human monocytes", "setting": "primary human monocytes", "result": "not cytotoxic"}, {"measurement": "reduction on virus production", "setting": "DENV-4", "result": 10, "unit": "fold"}, {"measurement": "reduction on virus production", "setting": "DENV-3", "result": 10, "unit": "fold"}, {"measurement": "reduction on virus production", "setting": "DENV-2 [1]; 200 μM, Huh7, 48 h", "result": 10, "unit": "fold"}, {"measurement": "Emax", "setting": "DENV-2 [1]; [5]", "result": 92.7, "unit": "%"}, {"measurement": "EC50", "setting": "DENV-2 [1]; DENV2, Huh-7, Huh7 transduced with shNT#2", "result": 17.1, "unit": "µM"}, {"measurement": "EC50", "setting": "DENV-2 [1]; DENV2, Huh-7, Huh7 transduced with shPADI4#4 (PADI4 silenced)", "result": 1.18, "unit": "µM"}, {"measurement": "EC50", "setting": "DENV-2 [1]; DENV2, Huh-7, read-out: EC50 ± SD", "result": "215 ± 19", "unit": "µM"}, {"measurement": "EC50", "setting": "DENV-2 [1]; DENV2, Huh-7, read-out: EC50 ± SD, Huh7-Empty control cell line", "result": "19.3 ± 2.36", "unit": "µM"}, {"measurement": "EC50", "setting": "DENV-2 [1]; DENV2, Huh-7, read-out: EC50 ± SD, Parental Huh7, 2 h pretreatment, 48 h", "result": 16.1, "unit": "µM"}, {"measurement": "inhibition of virus titers", "setting": "DENV-2 [1]; highest concentration tested, Huh7", "result": "up to 100 fold"}]}]}
